Measurements from US4229204A, “Trifluoromethylphenyl isoxazolyl benzoates” (Monsanto Company, priority 1978, dated 1980).

Tests used:
Format in all cases: in vivo
grain sorghum = test: Growth regulation of grain sorghum (Table IX); conditions: 250 ppm
From the text: The compound of Example Number 3 was also applied to four-week old grain sorghum at a rate of 250 ppm.

Crabgrass = test: Pre-emergent herbicidal test; conditions: 4 WAT; further: ranges in brackets are in %
Method in brief: (§1)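 Ratings come from a fixed scale based on percent injury to each species. Test compound, in solvent or as wettable powder, is incorporated into the cover soil placed over seeds or propagules set on compacted topsoil.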

Wheat = test: Pre-emergent herbicidal test; conditions: 4 WAT; further: ranges in brackets are in %
Method in brief: as §1

Sugarbeet = test: Pre-emergent herbicidal test; conditions: 4 WAT; further: ranges in brackets are in %
Method in brief: as §1

Panicum Spp. = test: Pre-emergent herbicidal test; conditions: 4 WAT; further: ranges in brackets are in %
Method in brief: as §1

Rice = test: Pre-emergent herbicidal test; conditions: 4 WAT; further: ranges in brackets are in %
Method in brief: as §1

Hemp Sesbania = test: Pre-emergent herbicidal test; conditions: 4 WAT; further: ranges in brackets are in %
Method in brief: as §1

Wild Buckwheat = test: Pre-emergent herbicidal test; conditions: 4 WAT; further: ranges in brackets are in %
Method in brief: as §1

Sorghum = test: Pre-emergent herbicidal test; conditions: 4 WAT; further: ranges in brackets are in %
Method in brief: as §1

Soybean = test: Pre-emergent herbicidal test; conditions: 4 WAT; further: ranges in brackets are in %
Method in brief: as §1

cheyenne wheat = test: Growth regulation of wheat (Table XI)
From the text: Table XI summarizes observations made when the compound of Example Number 3 was applied to cheyenne wheat.

Lambsquarters [1] = test: Pre-emergent herbicidal test; further: ranges in brackets are in %
Method in brief: (§2)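 Known amount of compound, as solvent application or wettable powder, blended into the covering soil layer above surface-sown seeds/propagules. Readout: fixed-scale rating of percent injury.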

Canada Thistle [2] = test: Pre-emergent herbicidal test; conditions: 2 WAT, 11.2 kg/h; further: ranges in brackets are in %
Method in brief: as §2

Johnsongrass [3] = test: Pre-emergent herbicidal test; conditions: 2 WAT, 11.2 kg/h; further: ranges in brackets are in %
Method in brief: as §2

Quackgrass [4] = test: Pre-emergent herbicidal test; conditions: 2 WAT, 11.2 kg/h; further: ranges in brackets are in %
Method in brief: as §2

Smartweed [5] = test: Pre-emergent herbicidal test; further: ranges in brackets are in %
Method in brief: as §2

Yellow Nutsedge [6] = test: Pre-emergent herbicidal test; conditions: 2 WAT, 11.2 kg/h; further: ranges in brackets are in %
Method in brief: as §2

Velvetleaf [7] = test: Pre-emergent herbicidal test; further: ranges in brackets are in %
Method in brief: as §2

Morningglory [8] = test: Pre-emergent herbicidal test; further: ranges in brackets are in %
Method in brief: as §2

Barnyardgrass [9] = test: Pre-emergent herbicidal test; further: ranges in brackets are in %
Method in brief: as §2

Downy Brome [10] = test: Pre-emergent herbicidal test; further: ranges in brackets are in %
Method in brief: as §2

Cocklebur [11] = test: Pre-emergent herbicidal test; further: ranges in brackets are in %
Method in brief: as §2

harber barley = test: Growth regulation of barley (Table X)
From the text: Table X, below, summarizes observations made when the compound of Example Number 3 was applied to harber barley.

Lambsquarters [12] = test: Post-emergent herbicidal test; further: ranges in brackets are in %
Method in brief: (§3)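 Two- to three-week-old plants were sprayed post-emergence with a solution or wettable powder suspension of the active ingredient at the desired test rate, with a surfactant added to the spray.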

Canada Thistle [13] = test: Post-emergent herbicidal test; conditions: 4 WAT, 11.2 kg/h; further: ranges in brackets are in %
Method in brief: as §3

Johnsongrass [14] = test: Post-emergent herbicidal test; conditions: 4 WAT, 11.2 kg/h; further: ranges in brackets are in %
Method in brief: as §3

Quackgrass [15] = test: Post-emergent herbicidal test; conditions: 4 WAT, 11.2 kg/h; further: ranges in brackets are in %
Method in brief: as §3

Smartweed [16] = test: Post-emergent herbicidal test; further: ranges in brackets are in %
Method in brief: as §3

Yellow Nutsedge [17] = test: Post-emergent herbicidal test; conditions: 4 WAT, 11.2 kg/h; further: ranges in brackets are in %
Method in brief: as §3

Velvetleaf [18] = test: Post-emergent herbicidal test; further: ranges in brackets are in %
Method in brief: as §3

Morningglory [19] = test: Post-emergent herbicidal test; further: ranges in brackets are in %
Method in brief: as §3

Barnyardgrass [20] = test: Post-emergent herbicidal test; further: ranges in brackets are in %
Method in brief: as §3

Downy Brome [21] = test: Post-emergent herbicidal test; further: ranges in brackets are in %
Method in brief: as §3

Cocklebur [22] = test: Post-emergent herbicidal test; further: ranges in brackets are in %
Method in brief: as §3

[23] = time of treatment 42 days, 10 ppm, 3 weeks after treatment
[24] = time of treatment 42 days, 50 ppm, 3 weeks after treatment
[25] = time of treatment 42 days, 250 ppm, 3 weeks after treatment

COC(=O)c1ccccc1-c1cc(-c2cccc(C(F)(F)F)c2)no1 [Example 3, Methyl 2-[3-[3-(Trifluoromethyl)-Phenyl]-5-Isoxazolyl]Benzoate]
1 (25-49): herbicidal rating (Wheat; 1.12 kg/h) | herbicidal rating (Lambsquarters [1]; 4 WAT, 1.12 kg/h) | herbicidal rating (Velvetleaf [7]; 4 WAT, 1.12 kg/h) | herbicidal rating (Downy Brome [10]; 4 WAT, 1.12 kg/h) | herbicidal rating (Cocklebur [11]; 4 WAT, 1.12 kg/h) | herbicidal rating (Lambsquarters [12]; 2 WAT, 1.12 kg/h) | herbicidal rating (Lambsquarters [12]; 4 WAT, 5.60 kg/h) | herbicidal rating (Smartweed [16]; 2 WAT, 1.12 kg/h) | herbicidal rating (Smartweed [16]; 4 WAT, 5.60 kg/h) | herbicidal rating (Velvetleaf [18]; 2 WAT, 1.12 kg/h) | herbicidal rating (Velvetleaf [18]; 4 WAT, 5.60 kg/h) | herbicidal rating (Morningglory [19]; 2 WAT, 1.12 kg/h) | herbicidal rating (Morningglory [19]; 4 WAT, 5.60 kg/h) | herbicidal rating (Cocklebur [22]; 2 WAT, 1.12 kg/h) | herbicidal rating (Cocklebur [22]; 4 WAT, 5.60 kg/h)
97 % of Control: Plant Height (harber barley; time of treatment 16 days, 250 ppm, 6 weeks after treatment)
91 % of Control: Plant Height (grain sorghum; 3 weeks after treatment)
Necrosis.: Other Observations (grain sorghum; 7 weeks after treatment)
3 (75-100): herbicidal rating (Sugarbeet; 5.60 kg/h) | herbicidal rating (Panicum Spp.; 5.60 kg/h) | herbicidal rating (Rice; 1.12 kg/h) | herbicidal rating (Rice; 5.60 kg/h) | herbicidal rating (Hemp Sesbania; 1.12 kg/h) | herbicidal rating (Hemp Sesbania; 5.60 kg/h) | herbicidal rating (Wild Buckwheat; 5.60 kg/h) | herbicidal rating (Sorghum; 5.60 kg/h) | herbicidal rating (Soybean; 5.60 kg/h) | herbicidal rating (Lambsquarters [1]; 2 WAT, 11.2 kg/h) | herbicidal rating (Canada Thistle [2]) | herbicidal rating (Quackgrass [4]) | herbicidal rating (Smartweed [5]; 2 WAT, 11.2 kg/h) | herbicidal rating (Smartweed [5]; 4 WAT, 1.12 kg/h) | herbicidal rating (Smartweed [5]; 4 WAT, 5.60 kg/h) | herbicidal rating (Morningglory [8]; 4 WAT, 5.60 kg/h) | herbicidal rating (Barnyardgrass [9]; 2 WAT, 11.2 kg/h) | herbicidal rating (Barnyardgrass [9]; 4 WAT, 1.12 kg/h) | herbicidal rating (Barnyardgrass [9]; 4 WAT, 5.60 kg/h)
80 % of Control: Plant Height (cheyenne wheat; time of treatment 15 days, 250 ppm, 3 weeks after treatment)
109 % of Control: Plant Height (cheyenne wheat; [25])
0 (0-24): herbicidal rating (Yellow Nutsedge [17]) | herbicidal rating (Barnyardgrass [20]; 2 WAT, 1.12 kg/h) | herbicidal rating (Barnyardgrass [20]; 4 WAT, 5.60 kg/h) | herbicidal rating (Downy Brome [21]; 2 WAT, 1.12 kg/h) | herbicidal rating (Downy Brome [21]; 4 WAT, 5.60 kg/h)
81 % of Control: Plant Height (grain sorghum; 7 weeks after treatment)
106 % of Control: Plant Height (harber barley; [24])
3 (75-99): herbicidal rating (Quackgrass [15]) | herbicidal rating (Barnyardgrass [20]; 4 WAT, 11.2 kg/h)
93 % of Control: Plant Height (cheyenne wheat; time of treatment 15 days, 250 ppm, 6 weeks after treatment) | Plant Height (harber barley; [23])
112 % of Control: Plant Height (cheyenne wheat; [24])
2 (50-74): herbicidal rating (Crabgrass; 1.12 kg/h) | herbicidal rating (Crabgrass; 5.60 kg/h) | herbicidal rating (Wheat; 5.60 kg/h) | herbicidal rating (Sugarbeet; 1.12 kg/h) | herbicidal rating (Panicum Spp.; 1.12 kg/h) | herbicidal rating (Wild Buckwheat; 1.12 kg/h) | herbicidal rating (Sorghum; 1.12 kg/h) | herbicidal rating (Soybean; 1.12 kg/h) | herbicidal rating (Lambsquarters [1]; 4 WAT, 5.60 kg/h) | herbicidal rating (Johnsongrass [3]) | herbicidal rating (Yellow Nutsedge [6]) | herbicidal rating (Velvetleaf [7]; 2 WAT, 11.2 kg/h) | herbicidal rating (Velvetleaf [7]; 4 WAT, 5.60 kg/h) | herbicidal rating (Morningglory [8]; 2 WAT, 11.2 kg/h) | herbicidal rating (Morningglory [8]; 4 WAT, 1.12 kg/h) | herbicidal rating (Downy Brome [10]; 2 WAT, 11.2 kg/h) | herbicidal rating (Downy Brome [10]; 4 WAT, 5.60 kg/h) | herbicidal rating (Cocklebur [11]; 2 WAT, 11.2 kg/h) | herbicidal rating (Cocklebur [11]; 4 WAT, 5.60 kg/h) | herbicidal rating (Canada Thistle [13]) | herbicidal rating (Johnsongrass [14]) | herbicidal rating (Velvetleaf [18]; 4 WAT, 11.2 kg/h) | herbicidal rating (Morningglory [19]; 4 WAT, 11.2 kg/h) | herbicidal rating (Downy Brome [21]; 4 WAT, 11.2 kg/h) | herbicidal rating (Cocklebur [22]; 4 WAT, 11.2 kg/h)
113 % of Control: Plant Height (cheyenne wheat; [23])
90 % of Control: Plant Height (harber barley; time of treatment 16 days, 250 ppm, 3 weeks after treatment) | Plant Height (harber barley; [25])
4 (100): herbicidal rating (Lambsquarters [12]; 4 WAT, 11.2 kg/h) | herbicidal rating (Smartweed [16]; 4 WAT, 11.2 kg/h)
